From patent US20250136931A1, “AN IMPROVED CELL CULTURE PROCESS FOR PRODUCTION OF PROTEIN” (KASHIV BIOSCIENCES, LLC, priority 2022, published 2025) come the findings set out here.

In assay [1] the test system is host cells producing fusion protein (CTLA4Ig). Kind of assay: Fed-batch bioreactor (Ambr250) cell culture for fusion protein (CTLA4Ig) production, control process spiked with Mito-TEMPO. The assay is classed as cell-based. As for the experimental part:
The cell bank vial was thawed in Shake flask 125 (SF125) into the seed media and cell counts were checked. The incubation was continued for 3-5 days during which cells reached the optimum cell density for subculture. The cells were subsequently expanded in Shake flask 500 (SF500) to generate sufficient inoculum for Ambr®250 bioreactors (250 mL).
Production Fed batch bioreactor run was executed at Ambr®250 bioreactor using process parameters as mentioned below.
The standard fed-batch culture process involved cell culturing for 12 days and was harvested depending upon the culture cell viability.
When the control process was spiked with antioxidant Mito Tempo (total 25 nM added throughout the culturing period) 5 nM each on day 3, 5, 7, 9, 11. It was observed that the harvested protein titer was improved by 28% when analysed by Protein-A HPLC method. It was also observed that overall oxidation of the product was decreased by 18% when analysed by LC-MS method. The overall peak viable cell density of the culture was also found to have increased by 11%.

Assay [2] deals with host cells producing antibody. Kind of assay: Fed-batch bioreactor (Ambr250) cell culture for antibody production, control process spiked with MitoTempo. The assay is classed as cell-based. The note with it: total 25 nM, 5 nM each on day 3, 5, 7, 9, 11. As for the experimental part:
The cell bank vial is thawed in Shake flask 125 (SF125) into the seed media and cell counts are checked. The incubation is continued for 3-5 days during which cells reached the optimum cell density for subculture. The cells are subsequently expanded in Shake flask 500 (SF500) to generate sufficient inoculum for Ambr®250 bioreactors (250 mL).
Production Fed batch bioreactor run is executed at Ambr®250 bioreactor using process parameters as mentioned below.
The standard fed-batch culture process involved cell culturing for 12 days and it is harvested depending upon the culture cell viability.
When the control process is spiked with antioxidant MitoTempo (total 25 nM added throughout the culturing period) 5 nM each on day 3, 5, 7, 9, 11. It is observed that the harvested protein titer is improved when analysed by Protein-A HPLC method. It is also observed that overall oxidation of the product is decreased when analysed by LC-MS method. The overall peak viable cell density of the culture is also found to have increased.

Where [3] appears, read: CTLA4Ig culture, total 25 nM, 5 nM each on day 3, 5, 7, 9, 11.
The mark [4] stands for this setting: CTLA4Ig fed-batch culture, 12 days, 5 nM each on Day 3, 5, 7, 9, 11 (total 25 nM).

With `CC1(C)CC(NC(=O)C[P+](c2ccccc2)(c2ccccc2)c2ccccc2)CC(C)(C)N1[O]` [MitoTempo, Mito-TEMPO], in assay [1] (setting [3]), the “harvested protein titer improved (Protein-A HPLC) versus control process” value amounted to 28%, the “overall oxidation of the product decreased (LC-MS) versus control process” value turned out to be 18% and the “overall peak viable cell density increased versus control process” value turned out to be 11%. In assay [1] (setting [4]), the “Harvest Oxidation (%) by LC-MS” value was 12.2%, the “Harvest Titer by Protein-A HPLC” value stood at 2.7 g/L and the “Peak cell density by Automated cell counter” value is recorded as 18.8 ×10^6 cells/mL. Besides, in assay [2], the “harvested protein titer (Protein-A HPLC) versus control process” value is recorded as “improved”, the “overall oxidation of the product (LC-MS) versus control process” value is on record as “decreased” and the “overall peak viable cell density of the culture versus control process” value is on record as “increased”.
